Results as given in publication PMC9161444, “In-Membrane Nanostructuring of Cationic Amphiphiles Affects Their Antimicrobial Efficacy and Cytotoxicity: A Comparison Study between a De Novo Antimicrobial Lipopeptide and Traditional Biocides” (Langmuir, 2022).
Several values for one entry are separate records, joined by “and”; a condition that tells them apart may be missing. Equal entries are not always repeated.

Legend:
E. coli (ATCC 25922) = type: cell-based, Escherichia coli; conditions: for MIC/CAC, converted data, E. coli: MIC divided by the amphiphile's CAC; for MIC, E. coli: microdilution, serial half-dilution in PBS, Mueller Hinton broth, 37 °C, 24 h, 10^6 CFU/mL, by eye and OD600, ± SD, at least three replicates
Protocol: E. coli (ATCC 25922), S. aureus (ATCC 6538), and C. albicans SC5314 (ATCC MYA-2876) were purchased from the American Type Culture Collection (ATCC). The two bacterial strains, E. coli and S. aureus, were cultured in Mueller Hinton broth at 37 °C; while the yeast strain, C. albicans, was grown in RPMI 1640 medium at 30 °C. The microdilution method was employed to determine MICs of the amphiphiles against the microorganism strains listed above.[21] Solutions of lipopeptides and biocides were half-diluted serially in 96-well plates using PBS buffer containing 137 mM NaCl, 2.7 mM KCl, 8.1 mM Na2HPO4, and 1.9 mM KH2PO4 for E. coli and S. aureus and using RPMI 1640 for C. albicans. Overnight incubations of the strains, in each respective growth medium, were then inoculated into each well, giving final concentrations of 10^6 CFU/mL for E. coli and S. aureus and 10^5 CFU/mL for C. albicans. Culture media without microorganisms and amphiphiles were employed as positive controls, while fresh microorganism cultures without amphiphiles were used as negative controls. Each plate has both positive controls and negative controls. The plates were then incubated at an appropriate temperature (stated above) for 24 h for the bacterial strains and 48 h for the yeast strain. MICs of each sample were first determined by eye. A more quantitative analysis was carried out by measuring optical densities at 600 nm (OD600) of each well using a Sunrise absorbance microplate reader (Tecan Group Ltd.). Inhibitory ratios (IRs) of each sample at a given concentration against a specific strain, denoted as IRi, were calculated by IRi = (OD600,negative control – OD600,i)/(OD600,negative control – OD600,positive control) × 100%. All experiments were repeated at least three times with each group containing three replicates. To better analyze concentration–IR relationships, sigmoidal function fittings were employed to generate the best fitted dose response curve for each situation.

[1] = Neutron reflectivity of amphiphile binding to lipid monolayer; conditions: C14KKGGII 5 μM, C14TAB 2.5 μM, C12TAB 75 μM; for Γamphiphile, amount bound to DPPC monolayer / Γamphiphile, amount bound to DPPG monolayer: monolayer at 28 mN/m; for DPPG lipid removed from monolayer: NR
Protocol: Single-component lipid monolayer models in a Langmuir trough (12.5 cm × 15 cm, Nima Technology Ltd., UK) were employed to investigate interactions between amphiphiles and lipids. The trough was filled with 70 mL of PBS at room temperature to provide a physiological environment.[23]−[25] Saturated head-charged lipid DPPG and saturated zwitterionic DPPC monolayers, mimicking negatively charged microbial membranes and mammalian cell membranes, respectively, were formed, and their interactions with amphiphiles were controlled by injecting each amphiphile carefully from outside the trough barrier. The lipids were dissolved in a chloroform/methanol mixture (v/v 9:1) to form the spreading solution. The lipid monolayer was spread by dripping the lipid solution onto the surface of the PBS solution. Following stabilization of the surface pressure, three cycles of isothermal compression and expansion were carried out to make the monolayer homogeneous. The surface was controlled at an initial pressure of 28 mN/m to mimic the static pressure within cell membranes. The final concentration of the amphiphile after injection was 1/40 of its CAC value for C14TAB, while the final concentration was 3/40 CAC for C12TAB because of its relatively higher MICs. Surface pressure changes with time following the injection process were recorded and analyzed.
Monolayer models described above were characterized using neutron reflectivity (NR) to measure the component distribution normal to the air/liquid interface. Measurements were performed on the SURF reflectometer at the ISIS Neutron and Muon Source (STFC Rutherford Appleton Laboratory, Didcot, UK).[23]−[25] The instrument provided a momentum transfer (Q) range from 0.01 to 0.5 Å^–1 [Q = […], where λ is the wavelength of the incoming neutron beam and θ is the incident angle]. At the start of the NR measurements, the reflectivity of the air/D2O interface was used for instrument calibration. Monolayers were prepared on the beamline. For each interaction, different isotopic contrasts were examined by applying chain-deuterated or fully hydrogenated versions of lipids (d62-DPPG, DPPG, d62-DPPC, and DPPC, denoted as dDPPG, hDPPG, dDPPC, and hDPPC, respectively) on the surface of PBS in D2O or null reflecting water (NRW, H2O/D2O = 91.9%/8.1%, v/v) and injecting deuterated or protonated versions of amphiphiles (C14KKGGII, dC14KKGGII, C12TAB, dC12dTAB, and C14TAB, denoted as hC14KKGGII, dC14KKGGII, hC12TAB, dC12TAB, and hC14TAB, respectively) from underneath the lipid monolayer outside the trough barrier bar. Reflectivity profiles from lipid monolayers were scanned before amphiphile injection to ensure good monolayer reproducibility. Raw data were reduced using Mantid software, and the resultant NR profiles were fitted via the least squares method using a Motofit package on Igor 6, where a multilayer model was employed in the analysis. The thickness and scattering length density (SLD, Nb) of each layer, that is, lipid tail region, lipid head region, and lipopeptide region, were fitted to the data. The SLD of each layer is related to the volume fractions of its components and could be calculated using Nb = ∑iφiNbi, where i denotes each component, for example, the solvent, lipid tails, lipid heads, lipopeptides’ acyl chains, and lipopeptides’ amino acids, and φi represents the volume fraction of component i and is constrained by ∑iφi = 1 in each layer. More details about the division of the molecular head/tail groups and relevant fitting parameters can be found in Figure S3 and Tables S3 and S4.

[2] = previous findings by Lu et al.; cited from earlier work
Excerpt: From the best fitted surface tension parameters (listed in Table S2), the area per molecule (APM) could be calculated from eq 4 for each amphiphile at its respective CAC. […] This is in line with the previous findings by Lu et al., which stated that APMs of C10TAB, C12TAB, C14TAB, C16TAB, and C18TAB adsorbed on the surface of water were 55 ± 3, 50 ± 2, 48 ± 3, 43 ± 3, and 43 ± 3 Å^2, respectively.[29]−[33] Each lipopeptide molecule occupied around 79 ± 10 Å^2 at ...

SMILES	MIC/CAC, converted data, E. coli (E. coli (ATCC 25922))	MIC, E. coli (E. coli (ATCC 25922))	Γlipid, DPPC remaining on the surface after amphiphile binding ([1]; NR best fit, DPPC monolayer at 28 mN/m, 3.08 ± 0.08 before)	Γlipid, DPPG remaining on the surface after amphiphile binding ([1]; NR best fit, DPPG monolayer at 28 mN/m, 3.35 ± 0.01 before)	Γamphiphile, amount bound to DPPC monolayer ([1]; NR best fit)	Γamphiphile, amount bound to DPPG monolayer ([1]; NR best fit)	DPPG lipid removed from monolayer [1]	APM adsorbed on the surface of water [2]
CCCCCCCCCCCC[N+](C)(C)C.[Br-] [C12TAB, dodecyltrimethylammonium bromide]	0.20 ± 0.04	200 ± 40 µM	2.55 ± 0.01 μmol/m^2	2.70 ± 0.20 μmol/m^2	0.98 ± 0.02 μmol/m^2	1.51 ± 0.01 μmol/m^2	22%	50 ± 2 Å^2
CCCCCCCCCCCCCC[N+](C)(C)C.[Br-] [C14TAB, tetradecyltrimethylammonium bromide]	1 and 1.00 ± 0.30	100 ± 30 µM	–	–	1.10 ± 0.01 μmol/m^2	1.43 ± 0.02 μmol/m^2	19%	48 ± 3 Å^2
